The values below come from patent US20250223552A1, “METHOD FOR PREPARING T CELLS FOR ADOPTIVE T CELL THERAPY” (ST. JUDE CHILDREN'S RESEARCH HOSPITAL, INC., priority 2022, published 2025).

In one assay the test system is OT-I CD8^+ T cells. Nature of the assay: OT-I CD8+ T cells activated with anti-CD3/CD28 in presence of Arid1a inhibitor, CD62L by flow cytometry. Type of assay: cell-based, mouse. The following applies: inhibitor 1 μM during 48 hours activation, drug removed, additional 2 days culture with IL-2; FIG. 1. The text has this:
Data are compiled from at least two independent experiments. Data are shown as mean±s.e.m. *p<0.05; two-tailed unpaired Student's t-test.
Flow Cytometry. Antibodies from Biolegend included APC/Cy7 anti-human CD8α, BV785 anti-human CD45RA, PE anti-human CD62L, APC anti-human CD27, PE/Cy7 anti-human CCR7, BV421 anti-human CD95, BV785 anti-mouse/human CD44, BV510 anti-mouse KLRG1, KIRAVIA Blue 520 anti-mouse CD62L, BV605 anti-mouse CD127, BV650 anti-mouse CX3CR1, APC anti-mouse CD8α, ALEXA FLUOR® 700 fluorescent dye anti-mouse CD45.2, APC anti-mouse CD98; PE anti-mouse CXCR3 (eBioscience); and BUV395 anti-human CD3, BUV805 anti-human CD45RO; BUV496 anti-mouse CD45.1, BUV805 anti-mouse CD8α were acquired from BD Biosciences. For surface markers, cells were stained for 30 minutes at 4° C. in PBS+2% (w/v) bovine serum albumin (BSA). […] Samples were acquired on CYTEK® Aurora or BD LSRII flow cytometer and analyzed with FlowJo software.
Effective adoptive T cell therapy for cancer is critically dependent upon the use of T cells with long-term memory potential (Lugli et al. (2020) Trends Immunol. 41:17-28; Gattinoni et al. (2012) Nat. Rev. Cancer 12:671-684; Klebanoff et al. (2005) Proc. Natl. Acad. Sci. USA 102:9571-9576; Hurton et al. (2016) Proc. Natl. Acad. Sci. USA 113: E7788-E7797). Therefore, it was determined whether manipulation of CBAF can improve anti-tumor therapy. […]
A general note: A flow cytometer gives signals particle by particle.

For another assay, the system named is murine B7-H3 CAR-T cells. Nature of the assay: Phenotype of B7-H3 CAR-T cells generated from T cells transiently treated with Arid1a inhibitor. The following applies: T cells activated 2 days with inhibitor, B7-H3 CAR transduction, additional 6 days culture. Type of assay: cell-based. The procedure: Murine CAR-T cells were generated as described before (Haydar et al. (2021) Neuro-Oncol. 23:999-1011) with modification. Naïve CD8^+ T cells from 6-8 weeks old CD45.1^+ mice were activated with plate bound anti-CD3ε (1 μg/ml, Bio-X-Cell), anti-CD28 (2 μg/ml, Bio-X-Cell) and 50 U/ml rhIL-2 (Peprotech). On day 2 post-activation, CD8^+ T cells were transduced with retrovirus expressing B7-H3-CAR or control CAR on recombinant human fibronectin sold under the tradename RETRONECTIN® (Takara)-coated non-tissue culture treated plate in complete RPMI medium supplemented with 50 U/ml rhIL-2. At 48 hours after transduction, CAR-T cells were harvested and expanded in the presence of 10 ng/ml rhIL-15 (Peprotech) for another 3 days and then used d for in vivo and in vitro experiments.
Currently the most widely used adoptive T cell therapy employs the use of CARs. However, the use of CAR-T cells for the treatment of solid tumors remains challenging (Lim & June whether CAR-T cell (2017) Cell 168:724-740). […] The ability of B7-H3 CAR-T cells to control the growth of F420 cells was then assessed in vivo.

For a further assay, the system named is F420 tumor. The assay is described as follows: F420 tumor-bearing mice treated with B7-H3 CAR-T cells pre-treated with Arid1a inhibitor. The class given is in vivo. The procedure:
Data are representative of two independent experiments. Data are shown as mean±s.e.m. *p<0.05, ***p<0.001; two-way ANOVA.
Data are representative of two independent experiments. Log-rank (Mantel-Cox) test was performed for comparing survival curves.
For CAR-T tumor models, the murine osteosarcoma cell line F420 was derived from singly floxed p53+/F-Col2.3 transgenic mice (Zhao et al. (2015) Oncogene 34:5069-5079); 0.5×10^6 F420 cells were injected subcutaneously into naïve mice. Seven days after tumor transplant, 5×10^6 B7-H3 CAR-T cells were transferred i.v. without lymphodepleting chemotherapy and tumor size was measured every two days.
Currently the most widely used adoptive T cell therapy employs the use of CARs. However, the use of CAR-T cells for the treatment of solid tumors remains challenging (Lim & June whether CAR-T cell (2017) Cell 168:724-740). To examine function is enhanced by acute Arid1a inhibition, a CAR targeting murine B7-H3 (Haydar et al. (2021) Neuro-Oncol. 23:999-1011) was used in two B7-H3-positive cell lines, murine osteosarcoma F420 (Zhao et al. (2015) Oncogene 34:5069-5079; Kenneth et al. (2021) Mol. Ther. 29:326-326) and glioma GL261 (Haydar et al. (2021) Neuro-Oncol. 23:999-1011). Murine T cells were activated for 2 days in the presence or absence of the Arid1a inhibitor, followed by retroviral transduction of the B7-H3 CAR to generate CAR-T cells. […] The ability of B7-H3 CAR-T cells to control the growth of F420 cells was then assessed in vivo.

[1] abbreviates: day 9 post-transfer, vs vehicle-treated CAR-T cells.

`CO[C@H]1CN(C)C(=O)c2cc(NC(=O)NC(C)C)ccc2OC[C@H](C)N(Cc2ccc(-c3ccccn3)cc2)C[C@@H]1C` [BRD-K98645985]: in the assay on OT-I CD8^+ T cells, the “generation of cells with the TCM marker CD62L” value is reported as “promoted the generation of cells with the TCM marker CD62L”. Further, in the assay with murine B7-H3 CAR-T cells, the “CAR expression compared with vehicle-treated controls” value was “no difference in CAR expression” and the “CD62L expression of CAR-T cells” value is “high CD62L expression”. Besides, the “tumor control (F420 tumor growth)” value in the assay on F420 tumor (B7-H3 CAR-T cells from transiently inhibitor-treated T cells vs untreated, FIG. 6) is “markedly enhanced tumor control”. In the assay on F420 tumor (B7-H3 CAR-T cells from transiently inhibitor-treated T cells vs untreated, FIG. 7), the “survival of F420 tumor-bearing mice” value is reported as “markedly enhanced”. Also, in the assay with F420 tumor (setting [1]), the “number of CAR-T cells among tumor infiltrating lymphocytes” value was “higher numbers” and the “proportion of CD62L^+CD44^+ cells among tumor infiltrating CAR-T cells” value is on record as “higher proportion of CD62L^+CD44^+ cells”.
